According to patent publication US9896454B2, “Microbiocidal heterobicyclic derivatives” (Syngenta Participations AG, priority 2014, dated 2018):

Row | SMILES | melting point [°C]
1 | COc1ccc2ncc(C3=NC(C)(C)C(C)(C)c4c(F)cccc43)cn12 [E 1] | 120 to 122
2 | CC1(C)N=C(c2cnc3cccn3c2)c2cccc(F)c2C1(C)C [E 2, 5-fluoro-3,3,4,4-tetramethyl-1-pyrrolo[1,2-a]pyrimidin-3-yl-isoquinoline] | 130 to 134
3 | CC1(C)N=C(c2cnc3ccc(Br)n3c2)c2cccc(F)c2C1(C)C [E 4] | 166 to 167
4 | CC1(C)Cc2c(F)cccc2C(c2cnc3ccnn3c2)=N1 [E 9] | 159 to 160
5 | CC1(C)Cc2c(Cl)cccc2C(c2cnc3ccnn3c2)=N1 [E 10] | 105
6 | Cc1cc2ncc(C3=NC(C)(C)C(C)(C)c4c(F)cccc43)cn2n1 [E 12] | 180 to 190
7 | Cc1nn2cc(C3=NC(C)(C)C(C)(C)c4c(F)cccc43)cnc2c1Br [E 13] | 132 to 134
8 | CC1(C)N=C(c2cnc3c(Br)cnn3c2)c2cccc(F)c2C1(C)C [E 14] | 58 to 61
9 | Cc1cnn2cc(C3=NC(C)(C)C(C)(C)c4c(F)cccc43)cnc12 [E 15] | 126 to 128
10 | CC1(C)N=C(c2cnc3c(C#N)cnn3c2)c2cccc(F)c2C1(C)C [E 16] | 179 to 182
11 | CC1(C)Cc2c(F)cccc2C(c2cnc3c(Br)cnn3c2)=N1 [E 17, 1-(3-bromopyrazolo[1,5-a]pyrimidin-6-yl)-5-fluoro-3,3-dimethyl-4H-isoquinoline] | 121 to 123
12 | CC1(C)N=C(c2cnc3c(Br)cnn3c2)c2cccc(F)c2C1=O [E 19, 1-(3-bromopyrazolo[1,5-a]pyrimidin-6-yl)-5-fluoro-3,3-dimethyl-isoquinolin-4-one] | 201 to 203
13 | CSc1nn2cc(C3=NC(C)(C)C(C)(C)c4c(F)cccc43)cnc2c1C#N [E 20] | 112 to 114
14 | CC1(C)N=C(c2cnc3c(Br)cnn3c2)c2cccc(F)c2C1(F)F [E 21, 1-(3-bromopyrazolo[1,5-a]pyrimidin-6-yl)-4,4,5-trifluoro-3,3-dimethyl-isoquinoline] | 164 to 166
15 | Cc1cnn2cc(C3=NC(C)(C)C(F)(F)c4c(F)cccc43)cnc12 [E 22] | 135 to 138
16 | Cc1nn2cc(C3=NC(C)(C)C(C)(C)c4c(F)cccc43)cnc2c1C#N [E 23] | 176 to 178
17 | CC1(C)N=C(c2cnc3c(C#N)cnn3c2)c2cccc(F)c2C1(F)F [E 24, 6-(4,4,5-trifluoro-3,3-dimethyl-1-isoquinolyl)pyrazolo[1,5-a]pyrimidine-3-carbonitrile] | 215 to 217
18 | Cc1nn2cc(C3=NC(C)(C)C(C)(C)c4c(F)cccc43)cnc2c1C [E 25] | 136 to 139
19 | CC1(C)N=C(c2cnc3c(F)cnn3c2)c2cccc(F)c2C1(C)C [E 26] | 198 to 200
20 | CC1(C)N=C(c2cnc3nccn3c2)c2cccc(F)c2C1(C)C [E 27] | 240 to 242
21 | CC1(C)Cc2c(F)cccc2C(c2cnc3nccn3c2)=N1 [E 28] | 227 to 229
22 | Cc1cccc2c1CC(C)(C)N=C2c1cnc2nccn2c1 [E 30] | 157 to 158
23 | CC1(C)N=C(c2cnc3nc(Br)cn3c2)c2cccc(F)c2C1(C)C [E 31] | 134 to 136
24 | CC1(C)N=C(c2cnc3c(Br)cc(Br)n3c2)c2cccc(F)c2C1(C)C [E 39] | 141 to 143
